{"source": "patent US20220087969A1", "about": "“METHOD FOR TREATING ASTHMA” (Olatec Therapeutics LLC, priority 2019, published 2022)", "key": {"[1]": {"tested_on": "OVA-induced allergic airway inflammation", "experiment": "Inflammatory cell infiltrate in lung tissue (HE sections, CAST), OVA model, i.p. dapansutrile", "assay_type": "in vivo, C57BL/6j mice", "details": "60 mg/kg i.p.; treated vs asthmatic mice; p<0.01", "procedure": "(§1) C57BL/6j mice were sensitized to OVA (ovalbumin) by three intraperitoneal (i.p.) injections of 10 μg OVA adsorbed to 150 mg aluminum hydroxide on days 1, 14, and 21. This sensitization results in an adoptive immune response against OVA with OVA-specific TH2 cells and the production of OVA-specific antibodies of the subclasses IgE and […]. To induce acute allergic airway inflammation, mice were exposed three times to an OVA aerosol (1% w/v in PBS) on days 26, 27, and 28. Healthy control animals (healthy group) were sham sensitized to PBS and subsequently challenged with PBS aerosol. […] The following readouts were measured according to Lunding, 2015b. • General infiltration of inflammatory cells into the broncheoalveolar lumen • Determination of the specific infiltration of eosinophils, neutrophils and lymphocytes by histologic differentiation of the bronchoalveolar lavage (BAL) cells. • Goblet cell hyperplasia by CAST system (Computer Assisted Stereological Toolbox), including making microscopic pictures of the airways. • Airway resistance in response to methacholine to determine the airway hyperresponsiveness. Specifically, inflammatory cell subpopulations (eosinophils, macrophages, neutrophils, lymphocytes) infiltrating the bronchoalveolar lumen were quantified using cyto-spinned and quick-diff-stained cells from bronchoalveolar lavage fluids (BALF). […]"}, "[2]": {"tested_on": "OVA-induced allergic airway inflammation", "experiment": "Airway resistance in methacholine provocation test, OVA model, i.p. dapansutrile", "assay_type": "in vivo, C57BL/6j mice", "details": "60 mg/kg i.p., Day 29, 100 mg/mL methacholine", "procedure": "as §1"}, "[3]": {"tested_on": "OVA-induced allergic airway inflammation", "experiment": "Goblet cells covering airway mucosa, OVA model, oral dapansutrile in food", "assay_type": "in vivo, mice", "procedure": "The experimental protocols of the mouse model were the same as those described in Example 1, except dapansutrile was administered orally by food. The already-sensitized mice were fed ad libidum with food pellets containing 7.5 g/kg dapansutrile starting on day 22 for one week; the first aerosol challenge was on day 26. Mice typically consume about 4 g of food per day, resulting in an approximate daily dose of 0 mg/kg/day for control groups and 1,000 mg/kg/day for the treatment groups. […] OVA-sensitized, OVA-challenged asthmatic controls (asthmatic) were fed with control food pellets without dapansutrile. […] (data not shown)."}, "[4]": {"experiment": "Blood level in mice fed dapansutrile food pellets", "assay_type": "in vivo, mouse", "details": "7.5 g/kg dapansutrile in food, nearly the same as the human level", "procedure": "The already-sensitized mice were fed ad libidum with food pellets containing 7.5 g/kg dapansutrile starting on day 22 for one week; the first aerosol challenge was on day 26. Mice typically consume about 4 g of food per day, resulting in an approximate daily dose of 0 mg/kg/day for control groups and 1,000 mg/kg/day for the treatment groups."}, "[5]": {"details": "humans, oral 1000 mg/day; Marchetti 2018b; cited from earlier work"}}, "note": "Read-outs that look alike come from different tables or passages of the source.", "data": [{"smiles": "CS(=O)(=O)CCC#N", "note": "[dapansutrile, 3-methanesulfonylpropionitrile]", "values": [{"measurement": "number of inflammatory cells in lung tissue (volume of inflammatory cell infiltrate per basal membrane area)", "setting": "[1]", "result": "significantly lower"}, {"measurement": "reduction of airway resistance", "setting": "[2]; vs asthmatic mice, p<0.0001", "result": "about 60%"}, {"measurement": "airway resistance in response to methacholine", "setting": "[2]; treated mice, asthmatic 5.61, healthy 2.83", "result": 3.93, "unit": "cm H2O·sec·ml^−1"}, {"measurement": "change of goblet cells covering the airway mucosa", "setting": "[3]; oral, 7.5 g/kg in food, vs asthmatic mice", "result": "−29", "unit": "%"}, {"measurement": "goblet cells covering the airway mucosa", "setting": "[3]; treated mice, oral 7.5 g/kg in food, asthmatic 15.75%", "result": 11.16, "unit": "%"}, {"measurement": "blood level", "setting": "[4]", "result": "~40000", "unit": "ng/mL"}, {"measurement": "blood level", "setting": "[5]", "result": 40000, "unit": "ng/mL"}]}]}
